Assay [1] concerns the target T1, Recombinant human integrin αvβ1 (Homo sapiens, UniProt P05556+P06756).
T1 construct: purchased R&D Systems 6579-AV
The assay can be described thus: Solid Phase Receptor Assay for αvβ1 Function. The following applies: binding to fibronectin-coated plate; read-out: αvβ1 SPRA IC50. Here is the method: Solid Phase Receptor Assay for αvβ1 Function.
Wells were washed 3 times with 150 μl TBS+ and 150 μL of blocking buffer (TBS+ with 1% bovine serum albumin, Sigma A7906) were added. The plate was incubated for 1 hr at 37° C. and then washed 3× with TBS+ buffer. […] Compounds were diluted 1:100 into the integrin solution and 50 μL added to empty wells of the washed fibronectin-coated plate according to a standard template with each sample repeated in triplicate. After incubation for two hours at room temperature, the plate was washed 3× with 150 μL of TBS+ buffer. To each well, 50 μL of biotinylated anti-αv antibody (R&D Systems, BAF1219) at 1 μg/mL in TBS+/0.1% BSA were added and the plate covered and incubated for 1 hr at room temperature. After washing the plate 3× with 150 μL of TBS+ buffer, 50 μL of streptavidin-conjugated horseradish peroxidase (R&D Systems, DY998) diluted in TBS+ blocking buffer were added to the wells and the plate incubated for 20 min at room temperature. The plate was washed 3× with TBS+ buffer followed by 50 μL of TMB substrate (Sigma, T4444) added to each well and the plate incubated for 20 min at room temperature. The reaction was optionally stopped with 25 μL of Stop Solution (Sigma S5689). Plates were read by colorimetric detection at 650 nm wavelength using a Tecan Safire II plate reader.

For assay [2], the target named is T2, Recombinant human integrin αvβ3 (Homo sapiens, UniProt P05106+P06756).
T2 construct: purchased R&D Systems 3050-AV
Put plainly: Solid Phase Receptor Assay for αvβ3 Function. The following applies: binding to vitronectin-coated plate; read-out: αvβ3 SPRA IC50. As to the method: Solid Phase Receptor Assay for αvβ3 Function.
Wells were washed 3 times with 150 μL TBS+ and 150 μL of blocking buffer (TBS+ with 1% bovine serum albumin, Sigma A7906) were added. The plate was incubated for 1 hr at 37° C. and then washed 3× with TBS+ buffer. […] Compounds were diluted 1:100 into the integrin solution and then 50 μL added to empty wells of the washed vitronectin-coated plate according to a standard template with each sample repeated in triplicate. After incubation for two hours at room temperature, the plate was washed 3× with 150 μL of TBS+ buffer. To each well, 50 μL of biotinylated anti-αv antibody (R&D Systems, BAF1219) at 0.5 μg/mL in TBS+/0.1% BSA were added and the plate covered and incubated for 1 hr at room temperature. After washing the plate 3× with 150 μL of TBS+ buffer, 50 μL of streptavidin-conjugated horseradish peroxidase (R&D Systems, DY998) diluted in TBS+ blocking buffer were added to the wells and the plate incubated for 20 min at room temperature. The plate was washed 3× with TBS+ buffer followed by 50 μL of TMB substrate (Sigma, T4444) added to each well and the plate was incubated for 20 min at room temperature. The reaction was optionally stopped with 25 μL of Stop Solution (Sigma, S5689). Plates were read by colorimetric detection at 650 nm wavelength using a Tecan S afire II plate reader.

Assay [3] deals with T3, Recombinant human integrin αvβ5 (Homo sapiens, UniProt P06756+P18084).
T3 construct: purchased R&D Systems 2528-AV
The assay can be described thus: Solid Phase Receptor Assay for αvβ5 Function. The following applies: binding to vitronectin-coated plate; read-out: αvβ5 SPRA IC50. As to the method:
Solid Phase Receptor Assay for αvβ5 Function.
(§1) Wells were washed 3 times with 150 μL TBS+ and 150 μL of blocking buffer (TBS+ with 1% bovine serum albumin, Sigma A7906) were added. The plate was incubated for 1 hr at 37° C. and then washed 3× with TBS+ buffer. […] Compounds were diluted 1:100 into the integrin solution and then 50 μL added to empty wells of the washed vitronectin-coated plate according to a standard template with each sample repeated in triplicate. After incubation for two hours at room temperature, the plate was washed 3× with 150 μL of TBS+ buffer. To each well, 50 μL of biotinylated anti-αv antibody (R&D Systems, BAF1219) at 0.5 μg/mL in TBS+/0.1% BSA at 0.5 μg/mL were added and the plate covered and incubated for 1 hr at room temperature. After washing the plate 3× with 150 μL of TBS+ buffer, 50 μL of streptavidin-conjugated horseradish peroxidase (R&D Systems DY998) diluted in TBS+ blocking buffer were added to the wells and the plate incubated for 20 min at room temperature. The plate was washed 3× with TBS+ buffer followed by 50 μL of TMB substrate (Sigma T4444) added to each well and the plate incubated for 20 min at room temperature. The reaction was optionally stopped with 25 μL of Stop Solution (Sigma S5689). Plates were read by colorimetric detection at 650 nm wavelength using a Tecan Safire II plate reader.

The target of assay [4] is T4, Recombinant human integrin αvβ6 (Homo sapiens, UniProt P06756+P18564).
T4 construct: purchased R&D Systems 3817-AV
The assay can be described thus: Solid Phase Receptor Assay for αvβ6 Function. The following applies: binding to LAP-coated plate; read-out: αvβ6 SPRA IC50. As to the method: Solid Phase Receptor Assay for αvβ6 Function.
as §1, with “150 μL TBS+, and 150” for “150 μL TBS+ and 150”, “at 37° C., and then” for “at 37° C. and then”, “the washed LAP-coated plate according” for “the washed vitronectin-coated plate according”, “TBS+/0.1% BSA were added” for “TBS+/0.1% BSA at 0.5 μg/mL were added”, “the plate was covered and” for “the plate covered and”, “peroxidase (R&D Systems, DY998) diluted” for “peroxidase (R&D Systems DY998) diluted”

T3 sequence (P06756 31-992 limits assumed): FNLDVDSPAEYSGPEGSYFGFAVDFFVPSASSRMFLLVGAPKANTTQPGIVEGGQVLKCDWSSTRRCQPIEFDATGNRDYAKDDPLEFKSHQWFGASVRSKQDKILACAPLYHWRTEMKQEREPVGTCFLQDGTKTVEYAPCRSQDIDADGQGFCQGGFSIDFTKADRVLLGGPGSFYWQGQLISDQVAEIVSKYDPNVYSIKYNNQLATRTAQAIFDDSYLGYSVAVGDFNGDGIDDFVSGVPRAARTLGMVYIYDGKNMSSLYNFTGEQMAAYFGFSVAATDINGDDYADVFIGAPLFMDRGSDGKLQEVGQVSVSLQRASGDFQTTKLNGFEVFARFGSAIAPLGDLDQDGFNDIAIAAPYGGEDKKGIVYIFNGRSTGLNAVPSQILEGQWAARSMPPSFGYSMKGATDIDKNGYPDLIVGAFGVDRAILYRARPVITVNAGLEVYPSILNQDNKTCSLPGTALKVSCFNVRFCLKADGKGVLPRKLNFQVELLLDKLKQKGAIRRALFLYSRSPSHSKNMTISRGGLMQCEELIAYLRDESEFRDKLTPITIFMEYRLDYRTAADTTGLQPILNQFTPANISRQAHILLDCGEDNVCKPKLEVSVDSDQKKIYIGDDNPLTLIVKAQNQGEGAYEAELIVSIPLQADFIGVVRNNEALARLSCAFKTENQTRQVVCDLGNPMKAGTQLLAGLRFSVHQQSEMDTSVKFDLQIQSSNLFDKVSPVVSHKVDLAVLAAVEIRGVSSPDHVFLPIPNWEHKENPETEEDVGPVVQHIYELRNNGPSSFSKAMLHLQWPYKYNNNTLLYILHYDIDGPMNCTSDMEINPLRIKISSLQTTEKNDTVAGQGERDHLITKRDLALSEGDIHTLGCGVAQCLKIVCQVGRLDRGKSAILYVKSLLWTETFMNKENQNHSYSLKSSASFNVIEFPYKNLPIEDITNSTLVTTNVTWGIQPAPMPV
T3 sequence (P18084 24-719 limits assumed): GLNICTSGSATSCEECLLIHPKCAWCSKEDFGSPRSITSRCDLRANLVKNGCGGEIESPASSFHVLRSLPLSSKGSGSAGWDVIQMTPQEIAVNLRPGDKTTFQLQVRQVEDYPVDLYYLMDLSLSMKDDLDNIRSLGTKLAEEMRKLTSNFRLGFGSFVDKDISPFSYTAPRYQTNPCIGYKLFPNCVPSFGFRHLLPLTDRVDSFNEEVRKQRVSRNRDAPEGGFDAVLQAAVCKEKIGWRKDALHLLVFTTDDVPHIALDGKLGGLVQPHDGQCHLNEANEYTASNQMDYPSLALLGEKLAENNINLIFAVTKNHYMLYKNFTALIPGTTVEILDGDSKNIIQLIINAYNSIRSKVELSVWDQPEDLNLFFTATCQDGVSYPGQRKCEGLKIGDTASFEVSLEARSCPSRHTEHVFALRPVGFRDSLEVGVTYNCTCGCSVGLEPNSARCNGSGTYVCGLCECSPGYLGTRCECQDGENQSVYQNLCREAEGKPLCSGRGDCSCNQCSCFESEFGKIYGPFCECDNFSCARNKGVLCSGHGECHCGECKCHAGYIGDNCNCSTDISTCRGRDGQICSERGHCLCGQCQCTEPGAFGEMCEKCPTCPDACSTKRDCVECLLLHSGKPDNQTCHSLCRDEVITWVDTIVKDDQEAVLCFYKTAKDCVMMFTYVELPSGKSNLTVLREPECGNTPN
T1 sequence (P06756 31-992 limits assumed): as the sequence (P06756 31-992 limits assumed) above
T1 sequence (P05556 21-728 limits assumed): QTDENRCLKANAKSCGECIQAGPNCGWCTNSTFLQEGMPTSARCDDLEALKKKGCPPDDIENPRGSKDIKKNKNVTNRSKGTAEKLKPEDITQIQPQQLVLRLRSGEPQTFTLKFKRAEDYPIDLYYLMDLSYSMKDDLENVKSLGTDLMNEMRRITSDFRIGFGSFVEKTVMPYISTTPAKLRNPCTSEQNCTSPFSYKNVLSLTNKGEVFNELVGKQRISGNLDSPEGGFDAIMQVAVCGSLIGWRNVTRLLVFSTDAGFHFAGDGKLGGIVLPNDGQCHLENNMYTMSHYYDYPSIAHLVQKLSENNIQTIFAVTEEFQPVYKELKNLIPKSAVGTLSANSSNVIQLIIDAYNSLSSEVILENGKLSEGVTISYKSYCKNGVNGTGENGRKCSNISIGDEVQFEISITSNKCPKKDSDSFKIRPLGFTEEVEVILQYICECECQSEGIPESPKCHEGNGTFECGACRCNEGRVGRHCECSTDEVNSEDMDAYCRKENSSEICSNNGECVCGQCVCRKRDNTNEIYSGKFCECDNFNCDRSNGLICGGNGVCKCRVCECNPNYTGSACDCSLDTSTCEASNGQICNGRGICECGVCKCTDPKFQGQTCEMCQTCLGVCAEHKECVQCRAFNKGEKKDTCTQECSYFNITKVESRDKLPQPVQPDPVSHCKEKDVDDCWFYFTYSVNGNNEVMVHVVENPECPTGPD
T4 sequence (P06756 31-992 limits assumed): as the sequence (P06756 31-992 limits assumed) above
T4 sequence (P18564 22-707 limits assumed): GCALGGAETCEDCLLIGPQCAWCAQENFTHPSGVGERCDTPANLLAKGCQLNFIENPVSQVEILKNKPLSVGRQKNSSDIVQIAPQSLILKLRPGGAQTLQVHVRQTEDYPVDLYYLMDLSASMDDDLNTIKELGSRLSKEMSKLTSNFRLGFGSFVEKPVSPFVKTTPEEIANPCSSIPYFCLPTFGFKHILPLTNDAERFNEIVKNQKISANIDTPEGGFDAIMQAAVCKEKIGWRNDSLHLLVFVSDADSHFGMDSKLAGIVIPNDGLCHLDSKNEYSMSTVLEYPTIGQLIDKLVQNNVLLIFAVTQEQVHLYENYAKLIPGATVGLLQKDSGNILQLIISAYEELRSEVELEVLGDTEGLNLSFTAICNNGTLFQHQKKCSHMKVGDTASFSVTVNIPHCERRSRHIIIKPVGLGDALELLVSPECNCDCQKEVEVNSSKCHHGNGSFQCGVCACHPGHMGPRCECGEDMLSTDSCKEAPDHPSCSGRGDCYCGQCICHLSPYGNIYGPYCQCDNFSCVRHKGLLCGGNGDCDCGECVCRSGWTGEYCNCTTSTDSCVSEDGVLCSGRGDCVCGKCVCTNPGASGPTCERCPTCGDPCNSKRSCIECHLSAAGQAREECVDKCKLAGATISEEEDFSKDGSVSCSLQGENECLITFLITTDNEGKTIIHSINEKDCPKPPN
T2 sequence (P06756 31-992 limits assumed): as the sequence (P06756 31-992 limits assumed) above
T2 sequence (P05106 27-718 limits assumed): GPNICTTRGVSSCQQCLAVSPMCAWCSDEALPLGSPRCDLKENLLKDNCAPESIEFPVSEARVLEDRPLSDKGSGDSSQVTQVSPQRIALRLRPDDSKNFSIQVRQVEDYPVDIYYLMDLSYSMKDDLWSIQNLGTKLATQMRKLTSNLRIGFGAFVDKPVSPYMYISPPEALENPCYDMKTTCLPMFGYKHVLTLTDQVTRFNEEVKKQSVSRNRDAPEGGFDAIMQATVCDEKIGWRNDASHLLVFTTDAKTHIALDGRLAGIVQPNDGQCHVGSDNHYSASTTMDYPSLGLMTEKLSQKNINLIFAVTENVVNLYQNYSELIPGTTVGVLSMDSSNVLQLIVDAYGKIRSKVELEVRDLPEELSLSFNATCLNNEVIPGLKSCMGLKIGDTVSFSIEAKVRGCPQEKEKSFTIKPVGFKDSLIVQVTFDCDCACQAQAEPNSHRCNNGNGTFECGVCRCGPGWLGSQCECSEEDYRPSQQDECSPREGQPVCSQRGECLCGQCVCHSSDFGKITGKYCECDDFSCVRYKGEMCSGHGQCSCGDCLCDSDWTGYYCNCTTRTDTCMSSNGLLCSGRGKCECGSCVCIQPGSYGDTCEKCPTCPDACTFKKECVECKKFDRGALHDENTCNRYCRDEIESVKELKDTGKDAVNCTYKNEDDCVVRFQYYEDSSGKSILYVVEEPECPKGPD

As usually defined, the IC50 is the point on the concentration scale where inhibition reaches its midpoint. For the molecule `CC(C)(O)c1cc([C@H](CC(=O)O)NC(=O)CNC(=O)c2cc(O)cc(NC3=NCC(O)CN3)c2)cc(C(F)(F)F)c1` (stereo partly drawn) [Example 13, (3S)-3-(2-(3-hydroxy-5-((5-hydroxy-1,4,5,6-tetrahydropyrimidin-2-yl)amino)benzamido)acetamido)-3-(3-(2-hydroxypropan-2-yl)-5-(trifluoromethyl)phenyl)propanoic acid], the concentration for half-maximal inhibition (IC50) is 4 nM in assay [1], 1.8 nM in assay [2], 0.3 nM in assay [3] and 0.6 nM in assay [4].

Regarding `COCC(C)(C)c1cc(Cl)cc([C@H](CC(=O)O)NC(=O)CNC(=O)c2cc(O)cc(NC3=NCC(O)CN3)c2)c1` (stereo partly drawn) [Example 14, (3S)-3-(3-chloro-5-(1-methoxy-2-methylpropan-2-yl)phenyl)-3-(2-(3-hydroxy-5-((5-hydroxy-1,4,5,6-tetrahydropyrimidin-2-yl)amino)benzamido)acetamido)propanoic acid], the half-maximal inhibitory concentration (IC50) in assay [1] was found to be 2.4 nM; in assay [2], 1.7 nM; in assay [3], 0.3 nM; in assay [4], 0.4 nM.

Consider `CC(C)(CO)c1cc(Cl)cc([C@H](CC(=O)O)NC(=O)CNC(=O)c2cc(O)cc(NC3=NCC(O)CN3)c2)c1` (stereo partly drawn) [Example 15, (3S)-3-(3-chloro-5-(1-hydroxy-2-methylpropan-2-yl)phenyl)-3-(2-(3-hydroxy-5-((5-hydroxy-1,4,5,6-tetrahydropyrimidin-2-yl)amino)benzamido)acetamido)propanoic acid], for which the IC50 turned out to be 2.9 nM in assay [1], 3.3 nM in assay [2], 0.4 nM in assay [3] and 0.4 nM in assay [4].

`COCC1(c2cc(Cl)cc([C@H](CC(=O)O)NC(=O)CNC(=O)c3cc(O)cc(NC4=NCC(O)CN4)c3)c2)CCOCC1` (stereo partly drawn) [Example 16, (3S)-3-(3-chloro-5-(4-(Methoxymethyl)tetrahydro-2H-pyran-4-yl)phenyl)-3-(2-(3-hydroxy-5-((5-hydroxy-1,4,5,6-tetrahydropyrimidin-2-yl)amino)benzamido)acetamido)propanoic acid]: the IC50 in assay [1] worked out at 3.3 nM; in assay [2], 1.7 nM; in assay [3], 0.6 nM; in assay [4], 0.5 nM.

Regarding `O=C(O)C[C@H](NC(=O)CNC(=O)c1cc(O)cc(NC2=NCC(O)CN2)c1)c1cc(Cl)cc(C2(CO)CCOCC2)c1` (stereo partly drawn) [Example 17, (3S)-3-(3-chloro-5-(4-(hydroxymethyl)tetrahydro-2H-pyran-4-yl)phenyl)-3-(2-(3-hydroxy-5-((5-hydroxy-1,4,5,6-tetrahydropyrimidin-2-yl)amino)benzamido)acetamido)propanoic acid], the IC50 in assay [1] turned out to be 3 nM; in assay [2] it was 4 nM; in assay [3] it was 0.5 nM; in assay [4], 0.5 nM.

Turning to `CC(C)(C)c1cc(-c2cccnc2)cc([C@H](CC(=O)O)NC(=O)CNC(=O)c2cc(O)cc(NC3=NCC(O)CN3)c2)c1` (stereo partly drawn) [Example 18, (3S)-3-(3-(tert-butyl)-5-(pyridin-3-yl)phenyl)-3-(2-(3-hydroxy-5-((5-hydroxy-1,4,5,6-tetrahydropyrimidin-2-yl)amino)benzamido)acetamido)propanoic acid], the half-maximal inhibitory concentration (IC50) in assay [1] was 3.4 nM; in assay [2], 14.5 nM; in assay [3], 21 nM; in assay [4] it was 0.6 nM.

Regarding `CC(C)(C)c1cc(-c2cncnc2)cc([C@H](CC(=O)O)NC(=O)CNC(=O)c2cc(O)cc(NC3=NCC(O)CN3)c2)c1` (stereo partly drawn) [Example 19, (3S)-3-(3-(tert-butyl)-5-(pyrimidin-5-yl)phenyl)-3-(2-(3-hydroxy-5-((5-hydroxy-1,4,5,6-tetrahydropyrimidin-2-yl)amino)benzamido)acetamido)propanoic acid], the IC50 in assay [1] is 4.1 nM; in assay [2], 8.8 nM; in assay [3], 21 nM; in assay [4] it was 0.7 nM.

With `O=C(O)C[C@H](NC(=O)CNC(=O)c1cc(O)cc(NC2=NCC(O)CN2)c1)c1cc(Cl)cc(C2(CF)CCOCC2)c1` (stereo partly drawn) [Example 20, (3S)-3-(3-chloro-5-(4-(fluoromethyl)tetrahydro-2H-pyran-4-yl)phenyl)-3-(2-(3-hydroxy-5-((5-hydroxy-1,4,5,6-tetrahydropyrimidin-2-yl)amino)benzamido)acetamido)propanoic acid], the IC50 in assay [1] turned out to be 4.9 nM; in assay [2], 3.7 nM; in assay [3], 0.5 nM; in assay [4], 1.4 nM.

Source of the values: US9085606B2, “Beta amino acid derivatives as integrin antagonists” (Saint Louis University, priority 2012, dated 2015).
